We go through two molecules from patent US11207301B2, “Sphingosine 1 phosphate receptor agonists for neuroprotection” (RECEPTOS LLC, priority 2017, dated 2021).

What is called IC50 is the point on the concentration scale where inhibition reaches its midpoint.

The target of one assay is T1, Recombinant human MAO-B (Homo sapiens, UniProt P27338).
T1 construct: purchased Sigma-Aldrich M7441; host or cells: baculovirus infected insect cells
T1 sequence (P27338 1-520): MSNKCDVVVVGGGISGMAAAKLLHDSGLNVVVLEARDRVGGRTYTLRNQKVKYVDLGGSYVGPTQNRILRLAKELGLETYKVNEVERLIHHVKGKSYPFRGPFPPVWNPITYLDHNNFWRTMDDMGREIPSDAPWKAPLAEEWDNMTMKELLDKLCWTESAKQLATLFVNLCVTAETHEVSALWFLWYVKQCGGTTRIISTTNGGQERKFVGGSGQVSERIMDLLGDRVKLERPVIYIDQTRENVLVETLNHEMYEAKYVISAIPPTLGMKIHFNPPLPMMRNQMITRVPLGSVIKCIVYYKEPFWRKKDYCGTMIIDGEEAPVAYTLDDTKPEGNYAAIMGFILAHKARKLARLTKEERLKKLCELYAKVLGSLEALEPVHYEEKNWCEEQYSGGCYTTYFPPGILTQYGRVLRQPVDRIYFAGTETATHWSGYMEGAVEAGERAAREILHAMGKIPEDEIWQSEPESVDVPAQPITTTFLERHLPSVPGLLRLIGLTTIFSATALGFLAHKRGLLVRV
The experiment in a line: MAO-B inhibition, conversion of kynuramine to 4-hydroxyquinoline. It is filed as biochemical. Here is the method:
The effect of a S1P receptoragonist on MAO-B activity can be assessed by measuring the inhibition of conversion of substrate kynuramine to 4-hydroxyquinoline as described in Example 4.
Compound 1 and Compound 2-S were evaluated for their ability to inhibit MAO-A and MAO-B. Inhibition of the conversion of kynuramine, a substrate for MAO-A and MAO-B, to 4-hydroxyquinoline was used to assess the inhibitory potential of Compound 1 and Compound 2-S. Recombinant human MAO-A (product number M7316) and MAO-B (product number M7441) expressed in baculovirus infected insect cells were obtained from Sigma-Aldrich, Saint Louis, Mo. USA were used as a source of purified MAOs.
Recombinant MAO-A (0.01 mg/mL, final concentrations) and MAO-B (0.02 mg/mL, final concentration) were diluted to desired concentrations in 100 mM potassium phosphate buffer (pH 7.4) containing 5 mM MgCl2. The diluted protein fractions were preincubated with various concentrations of each test compound at 37° C. for 2 min. The concentrations used were 100, 33, 10, 3.3, 1.0, 0.33 μM and acetonitrile/DMSO as vehicle control for MAO-A and 1.0, 0.3, 0.1, 0.03, 0.01, 0.003 μM and acetonitrile/DMSO as vehicle control for MAO-B. The reaction was started by addition of kynuramine to the incubation mixture. The final concentration of kynuramine was 40 μM for MAO-A and 25 μM for MAO-B. The total incubation volume was 0.250 mL. This concentration was selected to be close to the Km values of MAO-A (Km 42 μM) and MAO-B (Km 26 μM). After 10 min of incubation, aliquots (100 μL) of the reaction mixture were taken and added to 200 μL acetonitrile containing 0.5 μM IS (acetaminophen). The reaction product, 4-hydroxyquinoline was analyzed by LC-MS/MS as described below.
MS characterization and detection of kynuramine and 4-hydroxyquinoline was performed using ABI 4000 Sciex QTrap mass spectrometer utilizing a Turbo Spray. The mass spectrometer was controlled by Analyst v1.6.2. The ESI was operated in a positive ion mode and the experimental parameters were set as follows: ion spray voltage, 2000; source temperature, 550° C.; curtain gas, 20; collision gas, medium ion source gas 1, 55; ion source gas 2, 50. […]
The gradient system was used to separate the analytes with a flow rate of 0.5 ml/min using mobile phase A, water containing 0.1% formic acid and mobile phase B, acetonitrile containing 0.1% formic acid. […] The analytes were monitored using multiple reaction monitoring and the ion transitions (Q1/Q3) were as follows: 4-hydroxyquinoline 146/104 (collision energy, CE was 27; declustering potential, DP, 50, and IS (acetaminophen), 152/110 (collision energy, CE was 27; declustering potential, DP, 50). All data were analyzed using AB Sciex Analyst v1.6.2 software.

The subject of assay [1] is experimental autoimmune encephalomyelitis (EAE)-induced mouse model of Multiple Sclerosis (MS). The experiment in a line: Experimental autoimmune encephalomyelitis (EAE)-induced mouse model of multiple sclerosis, oral ozanimod. The conditions noted are these: EAE mice. It is filed as in vivo, C57BL/6 mice. An excerpt: In one embodiment, the S1P receptor agonist provides therapeutic benefit in the context of relapsing-remitting multiple sclerosis (RRMS), by down-modulating S1P receptor and resulting in retention of autoreactive lymphocytes in secondary lymphoid organs. As set forth in greater detail below, ozanimod activity on immune cell subsets was examined in the experimental autoimmune encephalomyelitis (EAE)-induced mouse model of Multiple Sclerosis (MS). C57BL/6 mice were immunized with MOG35-55 and pertussis toxin to initiate immune cell activation, migration to the spinal cord and neurodegeneration. Animals were treated with oral ozanimod either semi-therapeutically or therapeutically to investigate the impact on peripheral immune cell expansion and migration into the spinal cord. The plasma biomarker of CNS injury, neurofilament light (NfL), was measured at study termination.
Ozanimod activity on immune cell subsets was examined in the experimental autoimmune encephalomyelitis (EAE)-induced mouse model of Multiple Sclerosis (MS). C57BL/6 mice were immunized with MOG35-55 and pertussis toxin to initiate immune cell activation, migration to the spinal cord and neurodegeneration. Animals were treated with oral ozanimod either semi-therapeutically or therapeutically to investigate the impact on peripheral immune cell expansion and migration into the spinal cord. The plasma biomarker of CNS injury, neurofilament light (NfL), was measured at study termination.

Turning to `CC(C)Oc1ccc(-c2nc(-c3cccc4c3CCC4=O)no2)cc1C#N` [Compound 1, 2-isopropoxy-5-(3-(1-oxo-2,3-dihydro-1H-inden-4-yl)-1,2,4-oxadiazol-5-yl)benzonitrile], the “MAO-B inhibition (in words)” value on Recombinant human MAO-B was “potent inhibition”. On Recombinant human MAO-B (kynuramine 25 μM, 10 min incubation), the IC50 stood at 6.6 nM.
As for `CC(C)Oc1ccc(-c2nc(-c3cccc4c3CC[C@@H]4NCCO)no2)cc1C#N` [Ozanimod], the “spinal cord inflammation and demyelination” value in assay [1] was “reduce spinal cord inflammation and demyelination”. The “reduction of microglia expansion in the spinal cord” value in assay [1] (day 18-21 post-immunization) is on record as 75%. For the same molecule, in assay [1] (oral ozanimod), the “decrease of monocyte infiltration into the spinal cord” value worked out at 65%; the “diminished Th1 and Th17 cell expansion in the periphery” value is recorded as 60-70%; the “reduction of the number of Th1 and Th17 cells in the spinal cord” value was no less than 80%. Further, the “plasma biomarker of CNS injury NfL” value in assay [1] (therapeutic dosing, at study termination, vehicle 3298±350, p=0.05) was determined as 2209 ± 393 pg/mL.
